Results from patent publication US8927501B2, “αvβ6 peptide ligands and their uses” (priority 2005, dated 2015).
Where a SMILES comes first, the peptide text is derived from it. Where no end group is shown, it is not given here. The star is where a group is joined. Biotin = O=C1N[C@H]2[C@H](CS[C@H]2CCCCC(=O)*)N1; Ahx = NCCCCCC(=O)O

Key:
αvβ6 [1] = target: αvβ6 (UniProt P18564+P43406); test: cell-based; parameters: species or system mouse
rsαvβ6 [2] = target: T1, rsαvβ6 (Homo sapiens, UniProt P06756+P18564); test: biochemical; format: binding
T1 sequence (P06756 31-992 limits assumed): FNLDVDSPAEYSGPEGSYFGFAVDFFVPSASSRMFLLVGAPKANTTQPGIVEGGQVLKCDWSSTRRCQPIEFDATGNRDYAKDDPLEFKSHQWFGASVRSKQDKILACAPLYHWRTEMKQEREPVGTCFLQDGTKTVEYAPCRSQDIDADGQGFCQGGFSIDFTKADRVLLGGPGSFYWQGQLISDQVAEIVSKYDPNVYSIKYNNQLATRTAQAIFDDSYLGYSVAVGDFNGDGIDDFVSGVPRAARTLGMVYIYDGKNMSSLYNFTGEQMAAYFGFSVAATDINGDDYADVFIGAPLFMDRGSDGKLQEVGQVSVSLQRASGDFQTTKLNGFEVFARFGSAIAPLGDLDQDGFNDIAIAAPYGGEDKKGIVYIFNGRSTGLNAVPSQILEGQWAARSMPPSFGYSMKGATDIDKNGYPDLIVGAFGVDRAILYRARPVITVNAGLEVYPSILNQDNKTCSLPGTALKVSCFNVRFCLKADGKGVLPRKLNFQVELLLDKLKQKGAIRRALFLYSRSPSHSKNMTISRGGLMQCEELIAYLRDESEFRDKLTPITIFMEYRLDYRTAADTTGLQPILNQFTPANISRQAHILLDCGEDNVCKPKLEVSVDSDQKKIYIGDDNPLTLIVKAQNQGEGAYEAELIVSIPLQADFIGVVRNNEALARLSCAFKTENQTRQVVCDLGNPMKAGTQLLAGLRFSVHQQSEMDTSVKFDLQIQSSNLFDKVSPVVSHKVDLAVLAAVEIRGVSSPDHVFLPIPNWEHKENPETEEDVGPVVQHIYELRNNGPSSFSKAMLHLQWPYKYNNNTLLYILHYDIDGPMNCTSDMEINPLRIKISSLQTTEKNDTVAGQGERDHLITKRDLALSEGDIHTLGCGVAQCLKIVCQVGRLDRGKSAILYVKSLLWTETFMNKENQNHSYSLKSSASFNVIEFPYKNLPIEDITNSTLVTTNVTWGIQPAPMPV
T1 sequence (P18564 22-709 limits assumed): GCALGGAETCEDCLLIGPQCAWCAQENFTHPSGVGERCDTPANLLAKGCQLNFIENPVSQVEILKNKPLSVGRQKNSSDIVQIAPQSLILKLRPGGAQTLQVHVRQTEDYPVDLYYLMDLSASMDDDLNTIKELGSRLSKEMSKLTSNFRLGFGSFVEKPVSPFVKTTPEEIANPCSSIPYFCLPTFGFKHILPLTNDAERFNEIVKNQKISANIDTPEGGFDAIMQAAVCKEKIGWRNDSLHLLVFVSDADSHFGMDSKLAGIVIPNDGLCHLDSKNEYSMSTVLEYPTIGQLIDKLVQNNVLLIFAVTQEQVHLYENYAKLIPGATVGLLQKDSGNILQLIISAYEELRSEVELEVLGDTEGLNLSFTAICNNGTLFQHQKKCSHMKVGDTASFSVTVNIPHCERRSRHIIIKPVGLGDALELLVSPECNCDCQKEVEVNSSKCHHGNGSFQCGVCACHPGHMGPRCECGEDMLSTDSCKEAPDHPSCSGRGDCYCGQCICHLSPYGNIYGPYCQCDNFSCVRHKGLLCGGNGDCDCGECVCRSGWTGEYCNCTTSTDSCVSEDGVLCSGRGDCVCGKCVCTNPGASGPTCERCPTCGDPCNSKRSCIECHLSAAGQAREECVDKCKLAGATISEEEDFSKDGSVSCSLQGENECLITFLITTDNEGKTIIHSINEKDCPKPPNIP

αvβ6 [3] = target: T2, αvβ6 (Homo sapiens, UniProt P06756+P18564); test: Cell adhesion assay: αvβ6-dependent adhesion of VB6 cells to LAP; format: cell-based
T2 construct: endogenous in cells; host or cells: VB6 human oral squamous cell carcinoma
T2 sequence (P06756 31-1048): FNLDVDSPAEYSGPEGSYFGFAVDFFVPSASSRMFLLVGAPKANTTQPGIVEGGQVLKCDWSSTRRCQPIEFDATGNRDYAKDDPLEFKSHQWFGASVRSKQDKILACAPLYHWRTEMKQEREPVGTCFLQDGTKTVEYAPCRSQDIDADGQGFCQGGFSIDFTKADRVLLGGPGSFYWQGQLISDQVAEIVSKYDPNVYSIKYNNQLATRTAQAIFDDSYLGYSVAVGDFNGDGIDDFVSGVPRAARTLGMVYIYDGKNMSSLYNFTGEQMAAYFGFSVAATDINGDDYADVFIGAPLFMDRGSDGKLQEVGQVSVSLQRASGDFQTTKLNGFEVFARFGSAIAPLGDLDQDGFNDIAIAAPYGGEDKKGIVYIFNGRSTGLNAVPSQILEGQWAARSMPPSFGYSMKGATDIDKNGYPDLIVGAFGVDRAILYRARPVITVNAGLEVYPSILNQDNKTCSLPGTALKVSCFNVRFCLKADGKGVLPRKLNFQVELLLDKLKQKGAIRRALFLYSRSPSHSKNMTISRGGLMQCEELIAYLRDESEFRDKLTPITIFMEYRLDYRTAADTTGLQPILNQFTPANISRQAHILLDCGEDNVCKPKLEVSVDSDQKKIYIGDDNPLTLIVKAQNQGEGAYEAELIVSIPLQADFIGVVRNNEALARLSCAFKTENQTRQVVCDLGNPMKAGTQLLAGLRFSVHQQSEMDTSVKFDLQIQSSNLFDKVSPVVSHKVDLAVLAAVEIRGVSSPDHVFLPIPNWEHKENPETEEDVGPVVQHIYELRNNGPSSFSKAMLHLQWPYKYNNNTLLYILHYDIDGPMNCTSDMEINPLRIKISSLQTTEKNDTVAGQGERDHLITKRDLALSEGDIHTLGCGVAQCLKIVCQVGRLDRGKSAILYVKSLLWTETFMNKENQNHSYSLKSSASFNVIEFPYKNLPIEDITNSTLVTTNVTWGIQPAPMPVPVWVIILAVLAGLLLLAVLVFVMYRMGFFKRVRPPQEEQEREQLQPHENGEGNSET
T2 sequence (P18564 22-788): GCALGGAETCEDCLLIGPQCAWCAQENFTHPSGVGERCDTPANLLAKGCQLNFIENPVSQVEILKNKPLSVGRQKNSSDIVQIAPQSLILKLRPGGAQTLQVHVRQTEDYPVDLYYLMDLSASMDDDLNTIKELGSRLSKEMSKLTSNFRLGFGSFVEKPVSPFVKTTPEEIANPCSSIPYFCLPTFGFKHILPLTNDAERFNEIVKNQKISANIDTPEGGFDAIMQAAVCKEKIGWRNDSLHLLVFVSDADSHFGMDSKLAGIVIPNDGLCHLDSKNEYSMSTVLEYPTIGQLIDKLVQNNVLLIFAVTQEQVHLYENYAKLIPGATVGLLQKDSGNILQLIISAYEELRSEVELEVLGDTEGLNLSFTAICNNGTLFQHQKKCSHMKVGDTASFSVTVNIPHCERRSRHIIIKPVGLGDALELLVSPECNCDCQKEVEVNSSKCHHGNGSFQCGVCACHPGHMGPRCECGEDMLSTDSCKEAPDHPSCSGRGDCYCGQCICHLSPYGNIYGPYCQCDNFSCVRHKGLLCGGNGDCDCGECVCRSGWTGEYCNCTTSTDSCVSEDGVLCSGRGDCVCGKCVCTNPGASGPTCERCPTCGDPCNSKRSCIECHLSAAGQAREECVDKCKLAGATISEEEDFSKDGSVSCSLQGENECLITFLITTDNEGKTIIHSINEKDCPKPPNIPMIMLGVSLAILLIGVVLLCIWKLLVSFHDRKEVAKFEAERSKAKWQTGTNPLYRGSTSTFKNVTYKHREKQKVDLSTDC

A375Pβ6puro = format: cell-based, human
A375Ppuro = format: cell-based, human
rsαvβ6 [4] = target: T1, rsαvβ6; test: biochemical; format: binding; remark: listed apart in the source

## CC(C)C[C@H](NC(=O)[C@H](CC(=O)O)NC(=O)CNC(=O)[C@H](CCCNC(=N)N)NC(=O)[C@H](C)NC(=O)[C@H](C)NC(=O)[C@H](C)NC(=O)[C@@H](N)CO)C(=O)N[C@@H](CCC(=O)O)C(=O)N[C@@H](CCC(N)=O)C(=O)N[C@@H](CC(C)C)C(=O)N[C@H](C(=O)N[C@@H](CO)C(=O)N[C@@H](CC(C)C)C(=O)N[C@@H](CC(C)C)C(=O)N[C@@H](CCC(N)=O)C(=O)N[C@@H](CC(N)=O)C(=O)N[C@@H](CC(N)=O)C(=O)N[C@H](C(=O)N[C@@H](CC(N)=O)C(=O)O)C(C)C)[C@@H](C)O [P-INK] (H-SAAARGDLEQLTSLLQNNVN-OH; N-terminus assumed)
αvβ6 [1]
  inhibition of αvβ6-dependent adhesion / binding affinity to αvβ6: inhibited αvβ6-dependent adhesion

## SAAARGDLEQLTSLLQNNVNV [P18-INK]
αvβ6 [1]
  inhibition of αvβ6-dependent adhesion / binding affinity to αvβ6: significantly greater than that of DD19

## CC[C@H](C)[C@H](NC(=O)[C@@H](NC(=O)[C@H](C)NC(=O)[C@H](CC(C)C)NC(=O)[C@H](CC(=O)O)NC(=O)CNC(=O)[C@H](CCCNC(=N)N)NC(=O)[C@H](CCCNC(=N)N)NC(=O)CNC(=O)[C@@H](N)[C@@H](C)O)[C@@H](C)O)C(=O)O [DD3] (H-TGRRGDLATI-OH; N-terminus and C-terminus assumed)
rsαvβ6 [2]
  IC50: 22.6 nM
αvβ6 [3]
  effect on VB6 adhesion to LAP: little effect
αvβ6 [1]
  adhesion of 3T3β6.19 to LAP, % of control cell adhesion: 79±22%

## CC(C)C[C@H](NC(=O)[C@H](Cc1cnc[nH]1)NC(=O)[C@H](CCCNC(=N)N)NC(=O)[C@H](C)NC(=O)[C@H](Cc1cnc[nH]1)NC(=O)[C@@H](NC(=O)[C@@H](NC(=O)[C@@H](NC(=O)[C@H](CC(C)C)NC(=O)[C@H](Cc1cnc[nH]1)NC(=O)[C@H](C)NC(=O)[C@H](CC(C)C)NC(=O)[C@H](CC(=O)O)NC(=O)CNC(=O)[C@H](CCCNC(=N)N)NC(=O)[C@H](C)NC(=O)[C@H](CO)NC(=O)[C@H](C)NC(=O)[C@@H](NC(=O)[C@@H](N)Cc1ccc(O)cc1)[C@@H](C)O)[C@@H](C)O)[C@@H](C)O)[C@@H](C)O)C(=O)O [A20FMDV1]
A375Pβ6puro
  binding to A375Pβ6puro: binding to A375Pβ6puro at 1 μM
A375Ppuro
  binding to A375Ppuro: did not bind to A375Ppuro
αvβ6 [3]
  IC50: 38.2 ± 31.1 µM

## CC(C)C[C@H](NC(=O)[C@H](CC(=O)O)NC(=O)CNC(=O)[C@H](CCCNC(=N)N)NC(=O)[C@H](CC(C)C)NC(=O)[C@H](CC(N)=O)NC(=O)[C@@H]1CCCN1C(=O)[C@@H](NC(=O)[C@H](C)NC(=O)[C@@H](N)CC(N)=O)C(C)C)C(=O)N[C@@H](CCC(N)=O)C(=O)N[C@H](C(=O)N[C@@H](CC(C)C)C(=O)N[C@@H](C)C(=O)N[C@@H](CCC(N)=O)C(=O)N[C@@H](CCCCN)C(=O)N[C@H](C(=O)N[C@@H](C)C(=O)N[C@@H](CCCNC(=N)N)C(=O)N[C@H](C(=O)O)[C@@H](C)O)C(C)C)C(C)C [A20FMDV2]
A375Pβ6puro
  binding to A375Pβ6puro: observed at 10 μM, 1μM, 0.1 μM, 0.01 μM and 0.00 μM
  differential binding A375Pβ6puro versus A375Ppuro: four orders of magnitude
A375Ppuro
  binding to A375Ppuro: only at 10 μM

## Biotin-εAhx-eykCKLVGALQPDNVLQRCRTK [B-Ran, reference compound]
A375Pβ6puro
  binding to A375Pβ6 in the presence of 63G9: did not bind
  binding to A375Pβ6 in the presence of control IgG: did not bind
  binding to A375Pβ6puro: did not bind
A375Ppuro
  binding to A375Ppuro: did not bind
rsαvβ6 [4]
  binding of biotinylated peptide to immobilised rsαvβ6: did not show any binding

## CC[C@H](C)[C@H](NC(=O)[C@@H](NC(=O)[C@H](C)NC(=O)[C@H](CC(C)C)NC(=O)[C@H](CC(=O)O)NC(=O)CNC(=O)[C@H](CCCNC(=N)N)NC(=O)[C@@H](N)CCCNC(=N)N)[C@@H](C)O)C(=O)N[C@@H](Cc1c[nH]cn1)C(=O)O [DD1]
αvβ6 [1]
  IC50: 216 µM
  adhesion of 3T3β6.19 to LAP, % of control cell adhesion: 57±4%

## CC[C@H](C)[C@H](NC(=O)[C@@H](NC(=O)[C@H](C)NC(=O)[C@H](CC(C)C)NC(=O)[C@H](CC(=O)O)NC(=O)CNC(=O)[C@H](CCCNC(=N)N)NC(=O)[C@H](CCCNC(=N)N)NC(=O)CNC(=O)[C@@H](NC(=O)[C@@H](NC(=O)[C@@H](N)Cc1ccccc1)[C@@H](C)O)[C@@H](C)O)[C@@H](C)O)C(=O)O [DD2] (H-FTTGRRGDLATI-OH; N-terminus and C-terminus assumed)
rsαvβ6 [2]
  IC50: 30.9 nM
αvβ6 [3]
  effect on VB6 adhesion to LAP: little effect

## CC(C)C[C@@H]1NC(=O)[C@H](CC(=O)O)NC(=O)CNC(=O)[C@H](CCCNC(=N)N)NC(=O)[C@H](CC(C)C)NC(=O)[C@H](CC(N)=O)NC(=O)[C@@H]2CCCN2C(=O)[C@H](C(C)C)NC(=O)[C@H](Cc2ccc(O)cc2)NC(=O)[C@@H](NC(=O)CCCCCNC(=O)CCCC[C@@H]2SC[C@@H]3NC(=O)N[C@@H]32)CSSC[C@@H](C(=O)O)NC(=O)[C@H](CCCCN)NC(=O)[C@H](C)NC(=O)[C@H](C(C)C)NC(=O)[C@H](CCCCN)NC(=O)[C@H](CCC(N)=O)NC(=O)[C@H](C)NC(=O)[C@H](CC(C)C)NC(=O)[C@H](C(C)C)NC(=O)[C@H](CCC(N)=O)NC1=O [B-DBD2]
A375Pβ6puro
  binding to A375Pβ6 in the presence of 63G9: completely abolished
  binding to A375Pβ6 in the presence of control IgG: bound strongly
  binding to A375Pβ6puro: high levels of binding at concentrations as low as 1 nM
A375Ppuro
  binding to A375Ppuro: only low levels of binding
rsαvβ6 [4]
  EC50: 1.7 nM
  binding of biotinylated peptide to immobilised rsαvβ6: concentration-dependent binding

## CC(C)C[C@H](NC(=O)[C@H](CC(=O)O)NC(=O)CNC(=O)[C@H](CCCNC(=N)N)NC(=O)[C@H](CC(C)C)NC(=O)[C@H](CC(N)=O)NC(=O)[C@@H]1CCCN1C(=O)[C@@H](N)C(C)C)C(=O)N[C@@H](CCC(N)=O)C(=O)N[C@H](C(=O)N[C@@H](CC(C)C)C(=O)N[C@@H](C)C(=O)O)C(C)C [DD19]
rsαvβ6 [2]
  IC50: 85 nM
αvβ6 [3]
  VB6 adhesion to LAP in the presence of peptide: the same as adhesion in the absence of peptide
αvβ6 [1]
  IC50: 190 µM

## CC(C)C[C@@H]1NC(=O)[C@H](CC(=O)O)NC(=O)CNC(=O)[C@H](CCCNC(=N)N)NC(=O)[C@H](CC(C)C)NC(=O)[C@H](CC(N)=O)NC(=O)[C@@H]2CCCN2C(=O)[C@@H](NC(=O)[C@@H](CCCCN)NC(=O)[C@@H](Cc2ccc(O)cc2)NC(=O)[C@@H](CCC(=O)O)NC(=O)CCCCCNC(=O)CCCC[C@@H]2SC[C@@H]3NC(=O)N[C@@H]32)CSSC[C@@H](C(=O)N[C@@H](CCCNC(=N)N)C(=O)N[C@H](C(=O)N[C@@H](CCCCN)C(=O)O)[C@@H](C)O)NC(=O)[C@H](C(C)C)NC(=O)[C@H](CCCCN)NC(=O)[C@H](CCC(N)=O)NC(=O)[C@H](C)NC(=O)[C@H](CC(C)C)NC(=O)[C@H](C(C)C)NC(=O)[C@H](CCC(N)=O)NC1=O [B-DBD1]
A375Pβ6puro
  binding to A375Pβ6 in the presence of 63G9: greatly reduced
  binding to A375Pβ6 in the presence of control IgG: bound strongly
  binding to A375Pβ6puro: high levels of binding at concentrations as low as 1 nM
A375Ppuro
  binding to A375Ppuro: only low levels of binding
rsαvβ6 [4]
  EC50: 0.69 nM
  binding of biotinylated peptide to immobilised rsαvβ6: concentration-dependent binding

## CC[C@H](C)[C@H](NC(=O)[C@@H](NC(=O)[C@H](C)NC(=O)[C@H](CC(C)C)NC(=O)[C@H](CC(=O)O)NC(=O)CNC(=O)[C@H](CCCNC(=N)N)NC(=O)[C@H](CCCNC(=N)N)NC(=O)CNC(=O)[C@@H](NC(=O)[C@@H](NC(=O)[C@H](Cc1ccccc1)NC(=O)CN)[C@@H](C)O)[C@@H](C)O)[C@@H](C)O)C(=O)N[C@@H](Cc1cnc[nH]1)C(=O)NCC(=O)N[C@@H](CCSC)C(=O)N[C@@H](CC(N)=O)C(=O)N[C@@H](CCCNC(=N)N)C(=O)N1CCC[C@H]1C(=O)N[C@@H](Cc1ccccc1)C(=O)O [A20LAP]
A375Pβ6puro
  binding to A375Pβ6puro: bound to both cell lines at 10 μM and 1 μM
A375Ppuro
  binding to A375Ppuro: bound to both cell lines at 10 μM and 1 μM
αvβ6 [3]
  IC50: 28.7 ± 11 µM
  effect on VB6 adhesion to LAP: completely blocks cell adhesion
αvβ6 [1]
  adhesion of 3T3β6.19 to LAP, % of control cell adhesion: 32±7%
rsαvβ6 [4]
  binding of biotinylated peptide to immobilised rsαvβ6: bound more than A20FMDV1

## {Biotin-Ahx}-PGRTFHRFGMGAITRTGNDL [B-A20LAP-Ran, reference compound]
rsαvβ6 [4]
  binding of biotinylated peptide to immobilised rsαvβ6: did show binding at 10 μM and 1 μM

## CC(C)C[C@H](NC(=O)[C@H](CC(=O)O)NC(=O)CNC(=O)[C@H](CCCNC(=N)N)NC(=O)[C@H](CC(C)C)NC(=O)[C@H](CC(N)=O)NC(=O)[C@@H]1CCCN1C(=O)[C@@H](NC(=O)[C@H](C)NC(=O)[C@@H](N)CC(N)=O)C(C)C)C(=O)N[C@@H](CCC(N)=O)C(=O)N[C@@H](C(=O)N[C@@H](CC(C)C)C(=O)N[C@@H](C)C(=O)N[C@@H](CCC(N)=O)C(=O)N[C@@H](CCCCN)C(=O)N[C@@H](C(=O)N[C@@H](C)C(=O)N[C@@H](CCCNC(=N)N)C(=O)N[C@H](C(=O)O)[C@@H](C)O)C(C)C)C(C)C [DV1217]
A375Pβ6puro
  binding to A375Pβ6puro: bound to A375Pβ6 at 10 μM and at 1 μM
  loss of anti-αvβ6 potency versus A20FMDV2: 1000 fold
A375Ppuro
  binding to A375Ppuro: did not bind noticeably

## CC(C)C[C@H](NC(=O)[C@H](CC(=O)O)NC(=O)CNC(=O)[C@H](CCCNC(=N)N)NC(=O)[C@H](CC(C)C)NC(=O)[C@H](CC(N)=O)NC(=O)[C@@H]1CCCN1C(=O)[C@@H](NC(=O)[C@H](C)NC(=O)[C@H](CC(N)=O)NC(=O)CCCCCNC(=O)CCCC[C@@H]1SC[C@@H]2NC(=O)N[C@@H]21)C(C)C)C(=O)N[C@@H](CCC(N)=O)C(=O)N[C@H](C(=O)N[C@@H](CC(C)C)C(=O)N[C@@H](C)C(=O)N[C@@H](CCC(N)=O)C(=O)N[C@@H](CCCCN)C(=O)N[C@H](C(=O)N[C@@H](C)C(=O)N[C@@H](CCCNC(=N)N)C(=O)N[C@H](C(=O)O)[C@@H](C)O)C(C)C)C(C)C [B-A20FMDV2]
A375Pβ6puro
  binding to A375Pβ6 in the presence of 63G9: completely abolished
  binding to A375Pβ6 in the presence of control IgG: bound strongly
  binding to A375Pβ6puro: high levels of binding at concentrations as low as 1 nM
A375Ppuro
  binding to A375Ppuro: only low levels of binding
